In brackets after ≈: the same amount, converted by molar mass. Several values for one entry are separate records, joined by “and”; a condition that tells them apart may be missing. Equal values may be shown once. Read-outs that look alike come from different tables or passages of the source.

This is an account of results in paper PMC7775894 (Bioorganic chemistry, 2020).

One assay has as its system M. tb KZN494/MDR. In words: microbe, parasite or virus in culture. In kind it is cell-based. Particulars: Mycobacterium tuberculosis, read-out: M. tb MIC KZN494/MDR.
The next assay deals with M. tb TF274/XDR. Briefly: microbe, parasite or virus in culture. Format: cell-based. Particulars: Mycobacterium tuberculosis, read-out: M. tb MIC TF274/XDR.
For a further assay, the system named is M. tb R506/XDR. Briefly: microbe, parasite or virus in culture. In kind it is cell-based. The settings on record: Mycobacterium tuberculosis, read-out: M. tb MIC R506/XDR.
The subject of a further assay is M. tb V2475/MDR. Briefly: microbe, parasite or virus in culture. Format: cell-based. Particulars: Mycobacterium tuberculosis, read-out: M. tb MIC V2475/MDR.
The next assay relates to M. tb H37Rv strain. The settings on record: cited from earlier work.

For the molecule `COc1cccc2[nH]c(C(=O)NC34CC5CC(CC(C5)C3)C4)cc12` [8b, N-(1-Adamantyl)-4-methoxy-1H-indole-2-carboxamide], the MIC in the assay on M. tb KZN494/MDR was 0.048 µM (≈ 0.0156 µg/mL); in the assay with M. tb TF274/XDR, 0.024 to 0.048 µM (≈ 0.00779 to 0.0156 µg/mL); in the assay with M. tb R506/XDR, 0.024 to 0.048 µM (≈ 0.00779 to 0.0156 µg/mL); in the assay on M. tb V2475/MDR it was 0.096 µM (≈ 0.0311 µg/mL).

For the molecule `COc1ccc2[nH]c(C(=O)NC34CC5CC(CC(C5)C3)C4)cc2c1` [8d, N-(1-Adamantyl)-5-methoxy-1H-indole-2-carboxamide], the MIC was 0.39 µM (≈ 0.127 µg/mL) in the assay with M. tb KZN494/MDR, 0.39 µM (≈ 0.127 µg/mL) with M. tb TF274/XDR, 0.39 µM (≈ 0.127 µg/mL) with M. tb R506/XDR and 0.39 to 0.77 µM (≈ 0.127 to 0.25 µg/mL) with M. tb V2475/MDR.

As for `Cc1ccc2[nH]c(C(=O)NC34CC5CC(CC(C5)C3)C4)cc2c1` [8f, N-(1-Adamantyl)-5-methyl-1H-indole-2-carboxamide], the MIC with M. tb KZN494/MDR is 0.2 µM (≈ 0.0617 µg/mL); with M. tb TF274/XDR, 0.1 to 0.2 µM (≈ 0.0308 to 0.0617 µg/mL); in the assay with M. tb R506/XDR, 0.1 to 0.2 µM (≈ 0.0308 to 0.0617 µg/mL); in the assay on M. tb V2475/MDR it was 0.2 µM (≈ 0.0617 µg/mL).

As to `O=C(NC12CC3CC(CC(O)(C3)C1)C2)c1cc2ccc(Br)cc2[nH]1` [8i, 6-bromo-N-(3-hydroxyadamantan-1-yl)-1H-indole-2-carboxamide], the MIC with M. tb KZN494/MDR is 2.57 to 5.14 µM (≈ 1 to 2 µg/mL); in the assay on M. tb TF274/XDR, 2.57 µM (≈ 1 µg/mL); in the assay with M. tb R506/XDR, 2.57 µM (≈ 1 µg/mL); in the assay with M. tb V2475/MDR it was 5.14 µM (≈ 2 µg/mL).

Turning to `O=C(NC12CC3CC(CC(O)(C3)C1)C2)c1cc2c(Cl)cc(Cl)cc2[nH]1` [8j, 4,6-dichloro-N-(3-hydroxyadamantan-1-yl)-1H-indole-2-carboxamide], the MIC with M. tb KZN494/MDR came to 1.32 µM (≈ 0.501 µg/mL); with M. tb TF274/XDR, 0.66 µM (≈ 0.25 µg/mL); with M. tb R506/XDR, 0.66 µM (≈ 0.25 µg/mL); with M. tb V2475/MDR it was 2.64 µM (≈ 1 µg/mL).

Take `O=C(NC12CC3CC(CC(C3)C1)C2)c1cc2c(F)cc(F)cc2[nH]1` [8k, N-(1-Adamantyl)-4,6-difluoro-1H-indole-2-carboxamide]: the MIC turned out to be 0.024 µM (≈ 0.00793 µg/mL) in the assay on M. tb KZN494/MDR, 0.012 µM (≈ 0.00396 µg/mL) with M. tb TF274/XDR, 0.012 µM (≈ 0.00396 µg/mL) in the assay on M. tb R506/XDR and 0.024 µM (≈ 0.00793 µg/mL) in the assay on M. tb V2475/MDR.

As for `O=C(NC12CC3CC(CC(O)(C3)C1)C2)c1cc2c(F)cc(F)cc2[nH]1` [8l, 4,6-difluoro-N-(3-hydroxyadamantan-1-yl)-1H-indole-2-carboxamide], the MIC came out at 2.89 µM (≈ 1 µg/mL) with M. tb KZN494/MDR, 1.44 µM (≈ 0.499 µg/mL) with M. tb TF274/XDR, 2.89 µM (≈ 1 µg/mL) in the assay with M. tb R506/XDR and 5.77 µM (≈ 2 µg/mL) with M. tb V2475/MDR.

As for `O=C(Nc1cc(Cl)cc(Cl)c1)NC12CC3CC(CC(C3)C1)C2` [10a, 1-(1-Adamantyl)-3-(3,5-dichlorophenyl)urea], the MIC is 1.47 µM (≈ 0.499 µg/mL) in the assay on M. tb KZN494/MDR, 0.74 µM (≈ 0.251 µg/mL) in the assay on M. tb TF274/XDR, 0.74 µM (≈ 0.251 µg/mL) with M. tb R506/XDR and 1.47 to 2.95 µM (≈ 0.499 to 1 µg/mL) in the assay with M. tb V2475/MDR.

On to `O=C(O)c1cn(C2CC2)c2cc(N3CCNCC3)c(F)cc2c1=O` [CPF, Ciprofloxacin, reference compound], for which the MIC in the assay on M. tb TF274/XDR and with M. tb R506/XDR was 6.04 µM (≈ 2 µg/mL) each time.

On to `CC[C@@H](CO)NCCN[C@@H](CC)CO` [EMB, ethambutol], for which the MIC in the assay with M. tb H37Rv strain (listed as ethambutol) is 4.89 µM (≈ 0.999 µg/mL); with M. tb H37Rv strain (ref 22) it was 4.89 [22] μM.

Take `NNC(=O)c1ccncc1` [INH, isoniazid]: the MIC with M. tb H37Rv strain (ref 22) was 0.29 μM and 0.29 [22] μM.

In the case of `O=C(Nc1ccc(F)c(F)c1F)NC1C2CC3CC(C2)CC1C3` (centres unmarked) [compound 4], the MIC with M. tb H37Rv strain (ref 22) was 0.096 to 0.19 µM.
